The supplement of paper PMC10307832

How the values were obtained:
Assay in all cases: relative viability (nuclei count vs DMSO), 5 days (fraction); higher = more cells survive
Neratinib + Luminespib = compound: CCOc1cc2ncc(C#N)c(Nc3ccc(OCc4ccccn4)c(Cl)c3)c2cc1NC(=O)/C=C/CN(C)C [Neratinib] + CCNC(=O)c1noc(-c2cc(C(C)C)c(O)cc2O)c1-c1ccc(CN2CCOCC2)cc1 [Luminespib] (partner 0.01 µM)
Procedure, shortened: (§1)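 Lung cancer cell lines in 1536-well plates were dosed by pin tool the day after seeding, either with one drug alone or with a fixed anchor-drug dose plus five library-drug doses (not always all listed) in √10 steps. After 5 days, cells were fixed and their nuclei stained in one step (final 0.05% Triton X-100, 1% formaldehyde, 1 ug/ml Hoechst), then counted on 4× images. Relative viability is the nuclei count in treated wells divided by that in vehicle wells. Values are medians of duplicate plates.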

Neratinib + Olaparib = compound: CCOc1cc2ncc(C#N)c(Nc3ccc(OCc4ccccn4)c(Cl)c3)c2cc1NC(=O)/C=C/CN(C)C [Neratinib] + O=C(c1cc(Cc2n[nH]c(=O)c3ccccc23)ccc1F)N1CCN(C(=O)C2CC2)CC1 [Olaparib] (partner 8 µM)
Procedure, shortened: as §1

Neratinib + Decitabine = compound: CCOc1cc2ncc(C#N)c(Nc3ccc(OCc4ccccn4)c(Cl)c3)c2cc1NC(=O)/C=C/CN(C)C [Neratinib] + Nc1ncn([C@H]2C[C@H](O)[C@@H](CO)O2)c(=O)n1 [Decitabine] (partner 2 µM)
Procedure, shortened: as §1

Neratinib + Lapatinib = compound: CCOc1cc2ncc(C#N)c(Nc3ccc(OCc4ccccn4)c(Cl)c3)c2cc1NC(=O)/C=C/CN(C)C [Neratinib] + CS(=O)(=O)CCNCc1ccc(-c2ccc3ncnc(Nc4ccc(OCc5cccc(F)c5)c(Cl)c4)c3c2)o1 [Lapatinib] (partner 2 µM)
Procedure, shortened: as §1

SK-LU-1
relative viability (Neratinib + Luminespib; first compound 0.01 µM): 0.187 | relative viability (Neratinib + Luminespib; first compound 0.03162 µM): 0.213 | relative viability (Neratinib + Luminespib; first compound 0.1 µM): 0.192 | relative viability (Neratinib + Luminespib; first compound 0.3162 µM): 0.178 | relative viability (Neratinib + Luminespib; first compound 1 µM): 0.176 | relative viability (Neratinib + Olaparib; first compound 0.01 µM): 0.486 | relative viability (Neratinib + Olaparib; first compound 0.03162 µM): 0.549 | relative viability (Neratinib + Olaparib; first compound 0.1 µM): 0.413 | relative viability (Neratinib + Olaparib; first compound 0.3162 µM): 0.432 | relative viability (Neratinib + Olaparib; first compound 1 µM): 0.314 | relative viability (Neratinib + Decitabine; first compound 0.01 µM): 0.662 | relative viability (Neratinib + Decitabine; first compound 0.03162 µM): 0.796 | relative viability (Neratinib + Decitabine; first compound 0.1 µM): 0.588 | relative viability (Neratinib + Decitabine; first compound 0.3162 µM): 0.579 | relative viability (Neratinib + Decitabine; first compound 1 µM): 0.421 | relative viability (Neratinib + Lapatinib; first compound 0.01 µM): 0.921 | relative viability (Neratinib + Lapatinib; first compound 0.03162 µM): 0.904 | relative viability (Neratinib + Lapatinib; first compound 0.1 µM): 0.809 | relative viability (Neratinib + Lapatinib; first compound 0.3162 µM): 0.74 | relative viability (Neratinib + Lapatinib; first compound 1 µM): 0.507

LK-2
relative viability (Neratinib + Luminespib; first compound 0.01 µM): 0.183 | relative viability (Neratinib + Luminespib; first compound 0.03162 µM): 0.21 | relative viability (Neratinib + Luminespib; first compound 0.1 µM): 0.197 | relative viability (Neratinib + Luminespib; first compound 0.3162 µM): 0.18 | relative viability (Neratinib + Luminespib; first compound 1 µM): 0.125 | relative viability (Neratinib + Olaparib; first compound 0.01 µM): 0.941 | relative viability (Neratinib + Olaparib; first compound 0.03162 µM): 0.949 | relative viability (Neratinib + Olaparib; first compound 0.1 µM): 0.747 | relative viability (Neratinib + Olaparib; first compound 0.3162 µM): 0.553 | relative viability (Neratinib + Olaparib; first compound 1 µM): 0.433 | relative viability (Neratinib + Decitabine; first compound 0.01 µM): 0.321 | relative viability (Neratinib + Decitabine; first compound 0.03162 µM): 0.372 | relative viability (Neratinib + Decitabine; first compound 0.1 µM): 0.305 | relative viability (Neratinib + Decitabine; first compound 0.3162 µM): 0.225 | relative viability (Neratinib + Decitabine; first compound 1 µM): 0.24 | relative viability (Neratinib + Lapatinib; first compound 0.01 µM): 1.28 | relative viability (Neratinib + Lapatinib; first compound 0.03162 µM): 1.2 | relative viability (Neratinib + Lapatinib; first compound 0.1 µM): 0.95 | relative viability (Neratinib + Lapatinib; first compound 0.3162 µM): 0.664 | relative viability (Neratinib + Lapatinib; first compound 1 µM): 0.578

HCC-78
relative viability (Neratinib + Olaparib; first compound 0.01 µM): 0.996 | relative viability (Neratinib + Olaparib; first compound 0.03162 µM): 0.87 | relative viability (Neratinib + Olaparib; first compound 0.1 µM): 0.817 | relative viability (Neratinib + Olaparib; first compound 0.3162 µM): 0.798 | relative viability (Neratinib + Olaparib; first compound 1 µM): 0.396 | relative viability (Neratinib + Decitabine; first compound 0.01 µM): 0.816 | relative viability (Neratinib + Decitabine; first compound 0.1 µM): 0.651 | relative viability (Neratinib + Decitabine; first compound 0.3162 µM): 0.691 | relative viability (Neratinib + Decitabine; first compound 1 µM): 0.649 | relative viability (Neratinib + Lapatinib; first compound 0.01 µM): 0.89 | relative viability (Neratinib + Lapatinib; first compound 0.03162 µM): 1.09 | relative viability (Neratinib + Lapatinib; first compound 0.1 µM): 0.788 | relative viability (Neratinib + Lapatinib; first compound 0.3162 µM): 0.952 | relative viability (Neratinib + Lapatinib; first compound 1 µM): 0.398

NCI-H1648
relative viability (Neratinib + Olaparib; first compound 0.01 µM): 0.855 | relative viability (Neratinib + Olaparib; first compound 0.03162 µM): 0.917 | relative viability (Neratinib + Olaparib; first compound 0.1 µM): 0.806 | relative viability (Neratinib + Olaparib; first compound 0.3162 µM): 0.643 | relative viability (Neratinib + Olaparib; first compound 1 µM): 0.427 | relative viability (Neratinib + Decitabine; first compound 0.01 µM): 0.505 | relative viability (Neratinib + Decitabine; first compound 0.03162 µM): 0.389 | relative viability (Neratinib + Decitabine; first compound 0.1 µM): 0.384 | relative viability (Neratinib + Decitabine; first compound 0.3162 µM): 0.352 | relative viability (Neratinib + Decitabine; first compound 1 µM): 0.366

NCI-H441
relative viability (Neratinib + Luminespib; first compound 0.01 µM): 0.415 | relative viability (Neratinib + Luminespib; first compound 0.03162 µM): 0.413 | relative viability (Neratinib + Luminespib; first compound 0.1 µM): 0.423 | relative viability (Neratinib + Luminespib; first compound 0.3162 µM): 0.304 | relative viability (Neratinib + Luminespib; first compound 1 µM): 0.16 | relative viability (Neratinib + Olaparib; first compound 0.01 µM): 0.57 | relative viability (Neratinib + Olaparib; first compound 0.03162 µM): 0.438 | relative viability (Neratinib + Olaparib; first compound 0.1 µM): 0.488 | relative viability (Neratinib + Olaparib; first compound 0.3162 µM): 0.48 | relative viability (Neratinib + Olaparib; first compound 1 µM): 0.417 | relative viability (Neratinib + Decitabine; first compound 0.01 µM): 0.255 | relative viability (Neratinib + Decitabine; first compound 0.03162 µM): 0.246 | relative viability (Neratinib + Decitabine; first compound 0.1 µM): 0.235 | relative viability (Neratinib + Decitabine; first compound 0.3162 µM): 0.209 | relative viability (Neratinib + Decitabine; first compound 1 µM): 0.2

HCC-366
relative viability (Neratinib + Olaparib; first compound 0.01 µM): 0.36 | relative viability (Neratinib + Olaparib; first compound 0.03162 µM): 0.324 | relative viability (Neratinib + Olaparib; first compound 0.1 µM): 0.267 | relative viability (Neratinib + Olaparib; first compound 0.3162 µM): 0.347 | relative viability (Neratinib + Olaparib; first compound 1 µM): 0.404 | relative viability (Neratinib + Decitabine; first compound 0.01 µM): 0.361 | relative viability (Neratinib + Decitabine; first compound 0.03162 µM): 0.429 | relative viability (Neratinib + Decitabine; first compound 0.1 µM): 0.33 | relative viability (Neratinib + Decitabine; first compound 0.3162 µM): 0.368 | relative viability (Neratinib + Decitabine; first compound 1 µM): 0.471 | relative viability (Neratinib + Lapatinib; first compound 0.01 µM): 1.27 | relative viability (Neratinib + Lapatinib; first compound 0.03162 µM): 1.18 | relative viability (Neratinib + Lapatinib; first compound 0.1 µM): 0.901 | relative viability (Neratinib + Lapatinib; first compound 0.3162 µM): 1.09 | relative viability (Neratinib + Lapatinib; first compound 1 µM): 1.06

LCLC-103H
relative viability (Neratinib + Luminespib; first compound 0.01 µM): 0.921 | relative viability (Neratinib + Luminespib; first compound 0.03162 µM): 0.981 | relative viability (Neratinib + Luminespib; first compound 0.1 µM): 0.883 | relative viability (Neratinib + Luminespib; first compound 0.3162 µM): 0.93 | relative viability (Neratinib + Luminespib; first compound 1 µM): 0.647 | relative viability (Neratinib + Olaparib; first compound 0.01 µM): 0.63 | relative viability (Neratinib + Olaparib; first compound 0.03162 µM): 0.85 | relative viability (Neratinib + Olaparib; first compound 0.1 µM): 0.705 | relative viability (Neratinib + Olaparib; first compound 0.3162 µM): 0.726 | relative viability (Neratinib + Olaparib; first compound 1 µM): 0.642 | relative viability (Neratinib + Decitabine; first compound 0.01 µM): 0.772 | relative viability (Neratinib + Decitabine; first compound 0.03162 µM): 0.8 | relative viability (Neratinib + Decitabine; first compound 0.1 µM): 0.585 | relative viability (Neratinib + Decitabine; first compound 0.3162 µM): 0.761 | relative viability (Neratinib + Decitabine; first compound 1 µM): 0.7

NCI-H1563
relative viability (Neratinib + Luminespib; first compound 0.01 µM): 0.57 | relative viability (Neratinib + Luminespib; first compound 0.03162 µM): 0.498 | relative viability (Neratinib + Luminespib; first compound 0.1 µM): 0.488 | relative viability (Neratinib + Luminespib; first compound 0.3162 µM): 0.503 | relative viability (Neratinib + Luminespib; first compound 1 µM): 0.484 | relative viability (Neratinib + Lapatinib; first compound 0.01 µM): 0.921 | relative viability (Neratinib + Lapatinib; first compound 0.03162 µM): 0.975 | relative viability (Neratinib + Lapatinib; first compound 0.1 µM): 0.889 | relative viability (Neratinib + Lapatinib; first compound 0.3162 µM): 1.57 | relative viability (Neratinib + Lapatinib; first compound 1 µM): 0.843

EBC-1
relative viability (Neratinib + Olaparib; first compound 0.01 µM): 0.774 | relative viability (Neratinib + Olaparib; first compound 0.03162 µM): 0.668 | relative viability (Neratinib + Olaparib; first compound 0.1 µM): 0.669 | relative viability (Neratinib + Olaparib; first compound 0.3162 µM): 0.695 | relative viability (Neratinib + Olaparib; first compound 1 µM): 0.544 | relative viability (Neratinib + Lapatinib; first compound 0.01 µM): 0.205 | relative viability (Neratinib + Lapatinib; first compound 0.03162 µM): 0.192 | relative viability (Neratinib + Lapatinib; first compound 0.1 µM): 0.199 | relative viability (Neratinib + Lapatinib; first compound 0.3162 µM): 0.233 | relative viability (Neratinib + Lapatinib; first compound 1 µM): 0.211

NCI-H2228
relative viability (Neratinib + Luminespib; first compound 0.01 µM): 0.145 | relative viability (Neratinib + Luminespib; first compound 0.03162 µM): 0.138 | relative viability (Neratinib + Luminespib; first compound 0.1 µM): 0.14 | relative viability (Neratinib + Luminespib; first compound 0.3162 µM): 0.12 | relative viability (Neratinib + Luminespib; first compound 1 µM): 0.114 | relative viability (Neratinib + Olaparib; first compound 0.01 µM): 0.943 | relative viability (Neratinib + Olaparib; first compound 0.03162 µM): 0.576 | relative viability (Neratinib + Olaparib; first compound 0.1 µM): 0.589 | relative viability (Neratinib + Olaparib; first compound 0.3162 µM): 0.425 | relative viability (Neratinib + Olaparib; first compound 1 µM): 0.199 | relative viability (Neratinib + Lapatinib; first compound 0.01 µM): 1.03 | relative viability (Neratinib + Lapatinib; first compound 0.03162 µM): 1.26 | relative viability (Neratinib + Lapatinib; first compound 0.1 µM): 1.01 | relative viability (Neratinib + Lapatinib; first compound 0.3162 µM): 0.924 | relative viability (Neratinib + Lapatinib; first compound 1 µM): 0.259

Calu-6
relative viability (Neratinib + Olaparib; first compound 0.01 µM): 0.507 | relative viability (Neratinib + Olaparib; first compound 0.03162 µM): 0.643 | relative viability (Neratinib + Olaparib; first compound 0.1 µM): 0.568 | relative viability (Neratinib + Olaparib; first compound 0.3162 µM): 0.518 | relative viability (Neratinib + Olaparib; first compound 1 µM): 0.369 | relative viability (Neratinib + Lapatinib; first compound 0.03162 µM): 1.27 | relative viability (Neratinib + Lapatinib; first compound 0.1 µM): 0.967 | relative viability (Neratinib + Lapatinib; first compound 0.3162 µM): 0.95 | relative viability (Neratinib + Lapatinib; first compound 1 µM): 0.64
